In US11034650B2, “Compounds useful for treating a Mannheimia haemolytica or Histophilus somni infection” (Intervet Inc., priority 2016, dated 2021):
In brackets after ≈: the same amount, converted by molar mass.

Tests used:
Assay type in all cases: cell-based
[1] = system: Mannheimia haemolytica MH 6357 (M7/2, reference strain, cattle infection strain); experiment: MIC, broth-microdilution (CLSI VET01-A4), strain MH 6357; details: Mannheimia haemolytica strain MH 6357, broth-microdilution; unit assumed
In short: (§1)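 The compound was titrated in twofold steps in microdilution trays. Absence of turbidity, checked without instruments, marked the MIC at the lowest such concentration.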

[2] = system: Mannheimia haemolytica MH 6374 (ATCC 33396, reference strain); experiment: MIC, broth-microdilution (CLSI VET01-A4), strain MH 6374; details: Mannheimia haemolytica strain MH 6374, broth-microdilution; unit assumed
In short: as §1

[3] = system: Mannheimia haemolytica MH 10720 (154, BRD field isolate); experiment: MIC, broth-microdilution (CLSI VET01-A4), strain MH 10720; details: Mannheimia haemolytica strain MH 10720, broth-microdilution; unit assumed
In short: as §1

[4] = system: Mannheimia haemolytica MH 12587 (1071, BRD field isolate, macrolide-resistance: erm+, E+); experiment: MIC, broth-microdilution (CLSI VET01-A4), strain MH 12587; details: Mannheimia haemolytica strain MH 12587, broth-microdilution; unit assumed
In short: as §1

[5] = system: Mannheimia haemolytica MH 13065 (XB0446-6003.9, BRD field isolate); experiment: MIC, broth-microdilution (CLSI VET01-A4), strain MH 13065; details: Mannheimia haemolytica strain MH 13065, broth-microdilution; unit assumed
In short: as §1

[6] = system: Mannheimia haemolytica MH 13093 (XB0472-6014.1, BRD field isolate); experiment: MIC, broth-microdilution (CLSI VET01-A4), strain MH 13093; details: Mannheimia haemolytica strain MH 13093, broth-microdilution; unit assumed
In short: as §1

[7] = system: Pasteurella multocida PM 6267 (P 2225 (L386), reference strain, mouse infection strain); experiment: MIC, broth-microdilution (CLSI VET01-A4), strain PM 6267; details: Pasteurella multocida strain PM 6267, broth-microdilution; unit assumed
In short: as §1

[8] = system: Pasteurella multocida PM 6391 (ATCC 43137, reference strain); experiment: MIC, broth-microdilution (CLSI VET01-A4), strain PM 6391; details: Pasteurella multocida strain PM 6391, broth-microdilution; unit assumed
In short: as §1

[9] = system: Pasteurella multocida PM 10775 (080130003051, BRD field isolate); experiment: MIC, broth-microdilution (CLSI VET01-A4), strain PM 10775; details: Pasteurella multocida strain PM 10775, broth-microdilution; unit assumed
In short: as §1

[10] = system: Pasteurella multocida PM 12080 (IV102277-0093, BRD field isolate); experiment: MIC, broth-microdilution (CLSI VET01-A4), strain PM 12080; details: Pasteurella multocida strain PM 12080, broth-microdilution; unit assumed
In short: as §1

Row | Structure (SMILES) | MIC PM 6267 [7] [µg/mL] | MIC PM 6391 [8] [µg/mL] | MIC PM 10775 [9] [µg/mL] | MIC PM 12080 [10] [µg/mL] | MIC MH 6357 [1] [µg/mL] | MIC MH 6374 [2] [µg/mL] | MIC MH 10720 [3] [µg/mL] | MIC MH 12587 [4] [µg/mL] | MIC MH 13065 [5] [µg/mL] | MIC MH 13093 [6] [µg/mL]
1 | CC(C)(O)[C@H](NC(=O)c1ccc(C#Cc2ccc(CNCc3ccncc3)cc2)cc1)C(=O)NO [Compound 275] | ≤ 0.1 | ≤ 0.1 | ≤ 0.1 | ≤ 0.1 | 0.4 (≈ 0.846 µM) | 0.2 (≈ 0.423 µM) | ≤ 0.1 | 0.4 (≈ 0.846 µM) | 0.2 (≈ 0.423 µM) | 0.4 (≈ 0.846 µM)
2 | CC(C)[C@H](NC(=O)c1ccc(C#Cc2ccc(CNCc3ccnc(Cl)c3)cc2)cc1)C(=O)NO [Compound 168] | ≤ 0.1 | 0.4 (≈ 0.815 µM) | ≤ 0.1 | 0.2 (≈ 0.407 µM) | 0.4 (≈ 0.815 µM) | 0.8 (≈ 1.63 µM) | 0.2 (≈ 0.407 µM) | 1.6 (≈ 3.26 µM) | 0.8 (≈ 1.63 µM) | 0.8 (≈ 1.63 µM)
3 | O=C(N[C@@H](CO)C(=O)NO)c1ccc(C#Cc2ccc(CNCc3ccco3)cc2)cc1 [Compound 159] | 0.2 (≈ 0.461 µM) | 0.8 (≈ 1.85 µM) | ≤ 0.1 | 0.4 (≈ 0.923 µM) | 1.6 (≈ 3.69 µM) | 1.6 (≈ 3.69 µM) | 0.4 (≈ 0.923 µM) | 3.1 (≈ 7.15 µM) | 3.1 (≈ 7.15 µM) | 3.1 (≈ 7.15 µM)
4 | CSC(C)(C)[C@H](NC(=O)c1ccc(C#Cc2ccc(CNCc3ccccn3)nc2)cc1)C(=O)NO [Compound 343] | 3.1 (≈ 6.16 µM) | 6.3 (≈ 12.5 µM) | 0.4 (≈ 0.794 µM) | 1.6 (≈ 3.18 µM) | 3.1 (≈ 6.16 µM) | 3.1 (≈ 6.16 µM) | 0.4 (≈ 0.794 µM) | 6.3 (≈ 12.5 µM) | 3.1 (≈ 6.16 µM) | 6.3 (≈ 12.5 µM)
5 | CCCNCc1ccc(C#Cc2ccc(C(=O)N[C@H](C(=O)NO)C(C)(C)SC)cc2)cc1 [Compound 245] | 0.4 (≈ 0.882 µM) | 0.8 (≈ 1.76 µM) | ≤ 0.1 | 0.8 (≈ 1.76 µM) | 3.1 (≈ 6.83 µM) | 3.1 (≈ 6.83 µM) | 0.4 (≈ 0.882 µM) | 3.1 (≈ 6.83 µM) | 1.6 (≈ 3.53 µM) | 3.1 (≈ 6.83 µM)
6 | CCCNCc1ccc(C#Cc2ccc(C(=O)N[C@H](C(=O)NO)C(C)C)cc2)cc1 [Compound 206] | ≤ 0.1 | 0.4 (≈ 0.982 µM) | ≤ 0.1 | 0.2 (≈ 0.491 µM) | 3.1 (≈ 7.61 µM) | 3.1 (≈ 7.61 µM) | 0.8 (≈ 1.96 µM) | 6.3 (≈ 15.5 µM) | 3.1 (≈ 7.61 µM) | 6.3 (≈ 15.5 µM)
7 | CC(C)([C@H](NC(=O)c1ccc(C#Cc2ccc(CN3CCOCC3)s2)cc1)C(=O)NO)S(C)(=O)=O [Compound 314] | 0.4 (≈ 0.77 µM) | ≤ 0.1 | ≤ 0.1 | ≤ 0.1 | 0.4 (≈ 0.77 µM) | 1.6 (≈ 3.08 µM) | ≤ 0.1 | 0.8 (≈ 1.54 µM) | 0.4 (≈ 0.77 µM) | 0.8 (≈ 1.54 µM)

More lines, main results first:

Row | MIC PM 6267 [7] [µg/mL] | MIC PM 6391 [8] [µg/mL] | MIC PM 10775 [9] [µg/mL] | MIC PM 12080 [10] [µg/mL] | Structure (SMILES) | MIC MH 6357 [1] [µg/mL] | MIC MH 6374 [2] [µg/mL] | MIC MH 10720 [3] [µg/mL] | MIC MH 12587 [4] [µg/mL] | MIC MH 13065 [5] [µg/mL] | MIC MH 13093 [6] [µg/mL]
8 | 3.1 (≈ 6.72 µM) | ≤ 0.1 | 0.4 (≈ 0.867 µM) | 0.2 (≈ 0.433 µM) | CC(=O)C(NC(=O)c1ccc(C#Cc2ccc(CNCc3cccs3)cc2)cc1)C(=O)NO (stereo not shown) [Compound 411] | 0.4 (≈ 0.867 µM) | 0.8 (≈ 1.73 µM) | 0.8 (≈ 1.73 µM) | 0.2 (≈ 0.433 µM) | 0.8 (≈ 1.73 µM) | 0.8 (≈ 1.73 µM)
9 | 25 (≈ 59 µM) | 0.2 (≈ 0.472 µM) | 3.1 (≈ 7.32 µM) | 1.6 (≈ 3.78 µM) | COCCNCc1ccc(C#Cc2ccc(C(=O)N[C@@H](C(C)=O)C(=O)NO)cc2)cc1 [Compound 398] | 6.3 (≈ 14.9 µM) | 6.3 (≈ 14.9 µM) | 6.3 (≈ 14.9 µM) | 1.6 (≈ 3.78 µM) | 12.5 (≈ 29.5 µM) | 25 (≈ 59 µM)
10 | 1.6 (≈ 3.3 µM) | ≤ 0.1 | ≤ 0.1 | ≤ 0.1 | CON=C(C)C(NC(=O)c1ccc(C#Cc2ccc(CNCc3ccncc3)cc2)cc1)C(=O)NO (stereo not shown) [Compound 415] | 0.4 (≈ 0.824 µM) | 0.8 (≈ 1.65 µM) | 0.4 (≈ 0.824 µM) | 0.2 (≈ 0.412 µM) | 0.4 (≈ 0.824 µM) | 0.4 (≈ 0.824 µM)
